One molecule from US20230293614A1, “COMPOSITIONS AND METHODS OF TREATING UPS-ASSOCIATED DISEASES” (Board of Supervisors of Louisiana State University and …, priority 2020, published 2023) can be followed below.

As a reminder, the Km is the concentration of substrate that gives half-maximal velocity.

SMILES strings stand for the structures.

What all share (type): cell-based
Series [1] concerns deubiquitinating enzymes (DUBs). The experiment in a line: DUB activity (Z-LRGG-AMC cleavage) in lysates of treated OPM2 cells. To be noted: for Vmax / effect on DUB activity vs DMSO control / Km / n (Hill coefficient): 16 h. On the procedure:
OPM2 cells were maintained in RPMI 1640 media supplemented with 12% FBS, 21.8 mM glucose, 8.6 mM HEPES (pH 7.4) and 1.0 mM sodium pyruvate. MM.1S cell line were maintained in RPMI 1640 media supplemented with 10% FBS. The cells were all cultured in T175 flasks (VWR, Radnor, Pa.). All media components were from Corning, Atlanta, Ga. unless otherwise noted. To test the effect of the ethanolic extract and bioactive compounds on DUB activity, cells were exposed to a 16-h pretreatment with 10 μg/mL of PMI-5011 and 1, 10, 30 μg/mL concentrations of DMC-1, DMC-2, KOE, and davidigenin before lysing the cells for experimentation. All compounds were reconstituted in DMSO to obtain stock concentrations, which was further diluted in culture media to obtain the desired experimental concentrations. For vehicle control, a subpopulation of cells was treated with pure DMSO diluted in a similar manner for the same duration. Upon treatment, cell lysates (both OPM2 and MM.1S) were generated by harvesting 1×10^6 cells/mL, followed by washing 2× and pelleting in phosphate buffered saline (PBS; 137 mM NaCl, 10 mM Na2HPO4, […], and 1.75 mM KH2PO4 at pH 7.4). The cell pellet was re-suspended in an approximately equivalent volume of M-PER to the volume of the cell pellet (1000-2000 μL) then vortexed for 10 min at room temperature. Following this, the mixture was centrifuged at 14,000×g for 15 min at 4° C. and the supernatant transferred to a centrifuge tube and stored on ice until use. Total protein concentration was determined using a NanoDrop 2000c (Thermo Scientific, Madison, Wis.).
The commercial DUB reporter, Z-LRGG-AMC (substrate) (SEQ ID NO: 1) was reconstituted in DMSO to obtain a final stock concentration of 1.44 mM. This stock reporter was diluted as needed in assay buffer (50 mM HEPES, pH 7.4, 150 mM NaCl, 2 mM DTT, and 0.02% Tween-20) supplemented with 4 mg/mL cell lysates (source of DUBs) to reach the desired reporter concentration with a final volume of 100 μL in a 96-well plate. OPM2 and MM.1S cell lysates from different treatments (10 μg/mL of PMI-5011; 1, 10, and 30 μg/mL of DMC-1, DMC-2, KOE, davidigenin and control vehicle DMSO) and C2C12 cell lysates were used to interrogate the effect of the ethanolic extract and selected bioactive compounds on DUB activity. Reporter only and lysates only (noise/background) samples were included in the 96-well plate to confirm that the rates observed were due to DUB-mediated hydrolysis initiated by the cell lysates. The 96-well plate was maintained at a temperature of 30° C. in the dark for the duration of the experiment. The fluorescence signals emitted as a result of DUB-mediated cleavage of AMC (λex=355 nm and λem=460 nm) were quantified using a Wallac 1420 VICTOR2 multilabel HTS counter fluorometry (Perkin Elmer (Waltham, Mass.). Readings were collected every 30 min for 6 h. The normalized signals were obtained by comparing the treatment with noise and background fluorescence values which were then statistically analyzed for their significance. Each data point represents triplicate data points from duplicate experiments. A calibration curve was generated for known concentrations of AMC to correlate the fluorescence signal (AU) to concentration (μM). The approximate concentration of free fluorophore was used to calculate reaction rates (μM/min) for each substrate concentration using linear regression analysis.
All data visualization, interpretation and curve-fittings were performed using Origin Pro (OriginLab, Northampton, MA) while statistical analyses of experimental data were carried out using SAS 9.4 (SAS Solutions). The analyses of enzyme-substrate reactions in all cell lysates started with scatter plotting the fluorometry signals (p,M) measured for each substrate concentration against time (min). Fluorescence signals measured for each substrate concentration remained stable during the first 30 min, indicating there was a 30-minute lag period before reaction initiation. […]

Series [2] can be described thus: MTT cellular viability assay, MM.1S. The conditions noted are these: human, MM.1S cells, read-out: percentage of viable cells. Here is the method: (§1) The effect of PMI-5011 and bioactive compounds on the viability of cells was tested using a standard colorimetric MTT assay. The MTT Cell Proliferation Assay Kit was purchased from VWR, Radnor, Pa. MM.1S and OPM2 cells were treated with 10 μg/mL of PMI-5011 and 1, 10, and 30 μg/mL of DMC-1, DMC-2, KOE and davidigenin and plated at a density of 10^6 cells/mL in a 96-well plate with each well containing 250 μL of the sample. The plated cells were then incubated at 37° C. for 16 h. 10 μg/mL for PMI-5011 and a 16-h treatment period was used in this study based on previous findings by Yu et al.^24 Parallel plates were prepared for positive and negative solvent vehicle control with the same volume of DMSO and ethanol as for the treated cells. On the day of the experiment, the 96-well plates were centrifuged at 1000×g at 4° C. for 5 min in a microplate compatible centrifuge. The media was discarded and 50 μL of serum-free media and 50 μL of the MTT reagent were added into each well. For a background control, 50 μL of the MTT reagent was added into a well containing media only (no cells). The plate was incubated at 37° C. for 3 h in the dark. After incubation, 150 μL of the MTT solvent was added into each well. The plate was wrapped in a foil and placed on an orbital shaker for 15 min. Finally, the absorbance was measured at λex=544 nm and λem=590 nm using a Wallac 1420 VICTOR2 multilabel HTS counter fluorometry (Perkin Elmer (Waltham, Mass.). The percentage viable cells was obtained by Eq. 1.
(§2) % Viable Cells=S-N/C-N×100 (Eq. 1)
(§3) Where, S denotes raw absorbance values from samples, N denotes average absorbance value of the background control and C denotes the highest average absorbance value of positive vehicle control. The obtained percentage cytotoxicity values were then statistically analyzed for their significance. Each data point represents triplicate data points from duplicate experiments. The effect of PMI-5011 and the selected bioactive compounds on C2C12 cell viability has previously been reported.^24
(Tetrazolium dyes change colour on reduction, which living cells bring about.)

Series [3] in a line: MTT cellular viability assay, OPM2. To be noted: human, OPM2 cells, read-out: percentage of viable cells. On the procedure:
as §1, §2, §3

For the molecule `COc1ccc(CCC(=O)c2ccc(O)cc2O)cc1` [DMC-2, 1-(2,4-dihydroxyphenyl)-3-(4-methoxyphenyl)propan-1-one], the Vmax in series [1] (OPM2, 1 μg/mL) is 21.38 ± 2.68 µM/min; in series [1] (OPM2, 10 μg/mL), 22.71 ± 1.64 µM/min; in series [1] (OPM2, 30 μg/mL) it was 184.79 ± 22.09 µM/min; in series [1] (Table 2, OPM-2, 1 μg/mL, in µM/min), 21.38; in series [1] (Table 2, OPM-2, 10 μg/mL, in µM/min), 22.71; in series [1] (Table 2, OPM-2, 30 μg/mL, in µM/min), 184.79. For the same molecule, the “effect on DUB activity vs DMSO control” value in series [1] (OPM2, 1 μg/mL) is reported as “significantly enhanced”; in series [1] (OPM2, 10 μg/mL), “significantly enhanced”; in series [1] (OPM2, 30 μg/mL), “significantly enhanced”. In series [1] (OPM2, 1, 10, 30 μg/mL, regression fit), the “effect of increasing concentration on DUB activity (normalized Vmax)” value was “exponential increase”. In addition, the Km in series [1] (Table 2, OPM-2, 1 μg/mL) was 44.8 µM; in series [1] (Table 2, OPM-2, 10 μg/mL), 35.5 µM; in series [1] (Table 2, OPM-2, 30 μg/mL), 48.2 µM. Moreover, the “n (Hill coefficient)” value in series [1] (Table 2, OPM-2, 1 μg/mL) is given as 1.47; in series [1] (Table 2, OPM-2, 10 μg/mL), 1.59; in series [1] (Table 2, OPM-2, 30 μg/mL), 1.49. Further, the figures for the viability at 16 h, 1 μg/mL in series [2] (1 μg/mL) and in series [3] (1 μg/mL) were about 100% and about 85%, respectively. Besides, the viability at 16 h, 30 μg/mL in series [2] (30 μg/mL) is about 65%; in series [3] (30 μg/mL) it was about 70%.
